The values that follow come from patent US11696924B2, “Combination therapy using PDK1 and PI3K inhibitors” (MEMORIAL SLOAN-KETTERING CANCER CENTER, priority 2015, dated 2023).

Entries after “also recorded” stand apart in the source; their conditions may differ.

The subject of test [1] is pNDRG1 (T346). In words: Western blot of NDRG1 phosphorylation (T346). In kind it is cell-based. The settings on record: 4 h. The procedure: A) SGK1 mRNA levels in breast cancer cell lines sensitive or resistant to BYL719 (n=27). B) SGK1 mRNA levels in PIK3CA-mutant breast cancer cell lines sensitive or resistant to BYL719. C) Western blot of SGK1, SGK2, SGK3 and phosphorylated NDRG1 in a panel of PIK3CA—mutant breast cancer cell lines sensitive or resistant to BYL719. D) Western blot for NDRG1 and phosphorylated NDRG1 (T346) in BYL719-sensitive and -resistant breast cancer cell lines treated with BYL719 (1 μM) for 4 h. […] P values are calculated using Student's t-test. Error bars are ±SEM.
A) Dose-response curves from MDA-MB-361 cells transduced with pLenti7.3-LacZ or pLenti7.3-SGK1 (Δ60, S422D) treated with increasing concentrations of BYL719 for 6 days. B) Western blot analysis of LacZ and SGK1 MDA-MB-361 cells treated with BYL719 (1 μM) for 4 h. […] The DFG motif amino acids are indicated (D240, F241, G242). […] Hydrogen bonds are shown as dotted lines. […] L) IHC analysis of tumors from K collected at the end of the experiment. M) Top panel: growth curves of HCC1954 cells stably expressing doxycycline-inducible control (REN) or SGK1 knockdown treated with increasing concentrations of BYL719 for 6 days. Bottom panel: Western blot analysis of GFP-sorted control (REN) and SGK1 shRNA cells treated with BYL719 (1 μM) for 4 h. P values are calculated using Student's t-test. Error bars are ±SEM.
(§1) Then, membranes were probed using specific antibodies.

Test [2] relates to HCC1954 cells. In words: cell viability, MTT assay. In kind it is cell-based. Conditions: HCC1954 shPDK1, 6 days. On the procedure: (§2) Cell viability was measures using the MTT assay. Briefly, 5000 cells were seeded in 96 well plates, treated for 6 days, and assayed using 0,25% MTT (Sigma) and 50 mM sodium succinate (Sigma) solutions during 3 h. Formazan crystals were dissolved with DMSO and absorbance was measured at 570 nm of wavelength.

The subject of test [3] is JIMT1 cells. In words: cell viability, MTT assay. In kind it is cell-based. The settings on record: JIMT1 shPDK1, 6 days. On the procedure:
as §2
Background: Tetrazolium dyes change colour on reduction, which living cells bring about.

For test [4], the system named is pAKT (S473, T308). In words: Western blot of AKT phosphorylation. In kind it is cell-based. In general terms: In western blotting, separated proteins are transferred to a membrane and probed.
From the text: (§4) For western blot analysis proteins were extracted in RIPA buffer supplemented with protease and phosphatase inhibitors (Roche). Protein lysates were separated using SDS-PAGE gels and transferred to a PVDF membrane. Then, membranes were probed using specific antibodies. PDK1, pAKT (S473), pAKT (T308), pS6K (T389), pS6 (S240/4), pS6 (235/6), p4EBP1 (S65), PARP, Actin, pRSK (S227), cleaved Caspase 3, pFOXO1/3 (T24/T32), SGK1, SGK2, SGK3, pNDRG1 (T346), NDRG1, Flag, HA, and phospho-RXRXX(S/T) (SEQ ID NO: 1) were from Cell Signaling Technology (CST).
Test [5] deals with mTORC1. Briefly: Western blot of mTORC1 signaling (pS6K, pS6, p4EBP1). In kind it is cell-based.
From the text: as §4
The test system of test [6] is HCC1954 cells. Briefly: apoptosis: PARP cleavage and caspase 3/7 activity. In kind it is cell-based. The settings on record: HCC1954 shPDK1, BYL719 1 μM, long term.
From the text: For Caspase 3/7 activity, the Caspase-Glo® 3/7 Assay kit from Promega was used following manufacturer's instructions. The caspase inhibitor zVAD-fmk was used to inhibit apoptosis in cells and was also obtained from Promega.
as §1

Test [7] concerns cap-dependent translation. Briefly: m7GTP pull down, cap-dependent translation. In kind it is cell-based. Conditions: HCC1954 shPDK1, BYL719 1 μM, 4 h. On the procedure:
2 million cells were seeded in 10 cm plates and treated accordingly 12 hr after seeding. Lysates were prepared using m7GTP pull down buffer (50 mM Hepes, pH 7.4, 75 mM NaCl, 10 mM MgCl2, 1 mM DTT, 8 mM EGTA, 10 mM β-glycerophosphate, 0.5 mM Na3VO4, 0.5% Triton X-100) supplemented with protease and phosphatase inhibitors. Lysates were centrifuged at 13000 rpm for 10 min and supernatants were rotated for 2 h at 4° C. with 7-methyl-GTP-Sepharose or control Sepharose beads (Jena Bioscience). Beads were washed three times with m^7GTP pull down buffer, resuspended in Laemmli buffer, and associated proteins were detected by Western blot.

The test system of test [8] is HCC1954 xenografts. In words: HCC1954 in vivo xenograft. Further details: species or system mice. On the procedure:
Animals were maintained and treated in accordance with Institutional Guidelines of Memorial Sloan Kettering Cancer Center (Protocol number 12-10-019). 5×10^6 cells in 1:1 PBS/Matrigel (Corning) were injected subcutaneously into six-week-old female athymic Foxn1^nu nude mice.
When tumors reached a volume of ˜150 mm^3 mice were randomized, treated, and tumors were measured twice a week during a month. At least 10 tumors per group were used in all the studies. […] Tumors were harvested at the end of the experiment three hours after the last dosage, fixed in 4% formaldehyde in PBS, and paraffin-embedded. […] Primary staining was followed by 60 minutes incubation with biotinylated goat anti-rabbit IgG (Vector labs) 1:200. Blocker D, Streptavidin-HRP and DAB detection kit (Ventana Medical Systems) were used according to the manufacturer instructions.

In test [9] the test system is FOXO3. Briefly: FOXO-dependent transcription (microarray, RT-PCR, immunofluorescence, luciferase reporter, ChIP-qPCR). In kind it is cell-based. The settings on record: HCC1954 and JIMT1, 1 μM, 4 h, vs DMSO. On the technique in general: A reporter such as luciferase makes a cellular process visible.
Protocol: B) Enrichment plot for the FOXO3 signature in HCC1954 cells. C) Heat map showing changes in previously described FOXO3 targets.
G) Luciferase reporter assay in HCC1954 cells stably transduced with the FOXO consensus motif reporter construct treated as indicated for 12 h (RLU, Relative light units). H) ChIP-qPCR assay of FOXO3A binding at TNFSF10A and IRS2 promoters in HCC1954 cells treated as indicated in F. P values are calculated using Student's t-test. Error bars are ±SEM.
RNA was isolated from cells using the QIAGEN RNeasy kit. For microarray analysis, biotinylated cRNA was prepared according to the standard Illumina protocol. After fragmentation, cRNA was hybridized with Illumina GX HT12 Human Array. Slides were washed and stained in the Illumina instrument following manufactured protocol. Slides were scanned using Illumina Bead Array Reader. Data were analyzed using GenomeStudio software. No normalization and background correction are performed first, then quantile normalization and background correction are done.
For mRNA expression analysis, cDNA was prepared using the Bio-Rad cDNA synthesis kit. cDNA was amplified by quantitative PCR using SYBR Select Master Mix (Applied Biosystems) in the ViiA 7 Real-Time PCR system. All reactions were carried out in triplicate.
Lysed cells were sonicated on ice to yield 200-800 bp DNA fragments. […]
The subject of test [10] is SGK1. In words: kinase activity and phosphorylation of immunoprecipitated endogenous SGK1. In kind it is cell-based. Conditions: HCC1954, 4 hr, Crosstide substrate. On the procedure:
(§3) In vitro kinase activity of endogenous SGK1 and AKT was assayed by measuring [γ-32P] ATP incorporation into Crosstide substrate peptide [[…]] […] SGK1 and AKT were immunoprecipitated from HCC1954 cell line 4 hr after treatment. Immunoprecipitates were washed once with lysis buffer containing 500 mM NaCl, once with lysis buffer, and twice with Buffer A (50 mM Tris pH 7.5, 0.1 mM EGTA). Reactions were carried out in 40 μL total volume containing 0.1 mM [γ-32P] ATP (400-1000 cpm/pmol), 10 mM magnesium acetate, and 30 μM Crosstide peptide. Reactions were terminated by adding 10 μL […] EDTA. 40 μL of the reaction mix was spotted on P81 paper, which was immediately immersed into 50 mM ortophosphoric acid and washed several times. Papers were rinsed in acetone and air dried. Radioactivity was quantified by Cerenkov counting. One unit of enzyme activity was defined as the amount of enzyme that catalyzes incorporation of 1 nmol of [γ-32P] ATP into the substrate over one minute.

The test system of test [11] is AKT. In words: kinase activity of immunoprecipitated endogenous AKT. In kind it is cell-based. The settings on record: HCC1954, 4 hr, Crosstide substrate. On the procedure:
as §3

Turning to `Cc1nc(NC(=O)N2CCC[C@H]2C(N)=O)sc1-c1ccnc(C(C)(C)C(F)(F)F)c1` [BYL719], the “NDRG1 phosphorylation (T346)” value in test [1] (BYL719-resistant cell lines) is recorded as “maintain NDRG1 phosphorylation”; in [1] (BYL719-sensitive cell lines, 1 μM), “decreased NDRG1 phosphorylation at T346”. In addition, the “cell viability in PDK1 knockdown cells” value in test [2] and in test [3] was “decrease cell viability” in each case. Besides, the “AKT phosphorylation / activity” value in test [4] (BYL719-resistant cells (HCC1954, JIMT1), 1 μM, 4 h) is “reduced AKT phosphorylation (S473 and T308); also recorded: effectively suppressed AKT activity”. Moreover, the “pAKT (S473) levels fully decreased” value in [4] (CAL-148 and CAL-51 cells, 1 μM, 4 h) was “fully decreases pAKT levels”. In addition, the AKT phosphorylation entry in [4] (HCT116 PDPK1+/+ and PDPK1−/− cells) is “decreases AKT phosphorylation”. In addition, the mTORC1 signaling result in test [5] (BYL719-resistant cells (HCC1954, JIMT1), 4 h, BYL719 1 μM, GSK2334470 1 μM, SGK1-inh 10 μM) was “not downstream mTORC1 targets; also recorded: not mTORC1 signaling”; in test [5] (HCT116 PDPK1−/− cells), “inhibits mTORC1”; in [5] (HCT116 parental cells), “does not decrease mTORC1 signaling”; in test [5] (MDA-MB-361 cells overexpressing SGK1, 1 μM, 4 h) it was “maintained mTORC1 signaling”. In test [5] (HCC1954 and JIMT1 shPDK1, BYL719 1 μM, 4 h), the “phosphorylation of mTORC1 downstream targets in PDK1 knockdown cells” value is “decreased the phosphorylation of the mTORC1 downstream targets”. Besides, the “AKT phosphorylation and mTORC1 signaling” value in test [5] (MDA-MB-361 parental cells, 1 μM, 4 h) was “decreased both AKT phosphorylation and mTORC1 signaling”. In test [6], the “apoptosis markers in PDK1 knockdown cells” value is “induced PARP cleavage (FIG. 2C) and increased caspase 3/7 activity”. Moreover, in test [7], the “cap-dependent translation in PDK1 knockdown cells” value was “decreased cap-dependent translation”. The “S6 phosphorylation (S240/4) and 4EBP1 (T37/46) in tumors, IHC” value in test [8] (HCC1954 shGFP vs shPDK1 xenografts) was “inhibited only in shPDK1 xenografts”. The tumor growth entry in test [8] (HCC1954 shGFP xenografts) is listed as “modest delay in tumor growth”; in test [8] (HCC1954 shPDK1 xenografts), “durable tumor shrinkage”; in [8] (HCC1954 xenografts, BYL719 25 mg/kg daily p.o., GSK2334470 100 mg/kg i.p. 3 times/week, SGK1-inh 50 mg/kg daily p.o.), “some antitumor activity”. The “pAKT (S473) in tumors, IHC” value in [8] (tumors collected at the end of the experiment) is recorded as “effectively suppressed AKT phosphorylation (S473); also recorded: sufficient to suppress pAKT”. The “changes in gene expression / transcriptomic profile” value in test [9] is given as “modest”. The “endogenous SGK1 kinase activity” value in test [10] is given as “remains active”. For the same compound, in [11], the “endogenous AKT kinase activity” value is “completely abrogated”.
